Earlier results on two compounds are cited in patent publication US6852743B1, “Preventives for the recurrence of cerebrovascular failure and agents for ameliorating troubles following cerebrovascular failure and inhibiting progress thereof” (Takeda Pharmaceutical Company Limited, priority 1999, dated 2005).

The test system of one series is insulin sensitivity. As to conditions: clinically; Iimura O. et al., Am J Hypertens 8, 353-357, 1995.
In series [1] the test system is automatic regulation of cerebral blood flow. As to conditions: literature report, Vraamark T et al., J Hypertens 13:755-761, 1995.

Regarding `CCOc1nc2cccc(C(=O)OC(C)OC(=O)OC3CCCCC3)c2n1Cc1ccc(-c2ccccc2-c2nnn[nH]2)cc1` (centres unmarked) [Candesartan cilexetil, 1-(cyclohexyloxycarbonyloxy)ethyl 2-ethoxy-1-[[2′-(1H-tetrazole-5-yl)biphenyl-4-yl]methyl]benzimidazole-7-carboxylate], the insulin sensitivity result in the series on insulin sensitivity is “improve insulin sensitivity clinically”. In the case of `CCOc1nc2cccc(C(=O)O)c2n1Cc1ccc(-c2ccccc2-c2nnn[nH]2)cc1` [Candesartan, 2-ethoxy-1-[[2′-(1H-tetrazole-5-yl)biphenyl-4-yl]methyl]benzimidazol-7-carboxylic acid], the “effect on the lower limit of automatic regulation” value in series [1] is reported as “can deviate the lower limit of automatic regulation leftward (toward lower blood pressure level)”.
